The assay concerns the target T1, human PCaR (Homo sapiens, UniProt P41180).
T1 construct: expressed in transfected cells; host or cells: CCL39 fibroblasts (stably transfected)
T1 sequence (P41180 20-1078): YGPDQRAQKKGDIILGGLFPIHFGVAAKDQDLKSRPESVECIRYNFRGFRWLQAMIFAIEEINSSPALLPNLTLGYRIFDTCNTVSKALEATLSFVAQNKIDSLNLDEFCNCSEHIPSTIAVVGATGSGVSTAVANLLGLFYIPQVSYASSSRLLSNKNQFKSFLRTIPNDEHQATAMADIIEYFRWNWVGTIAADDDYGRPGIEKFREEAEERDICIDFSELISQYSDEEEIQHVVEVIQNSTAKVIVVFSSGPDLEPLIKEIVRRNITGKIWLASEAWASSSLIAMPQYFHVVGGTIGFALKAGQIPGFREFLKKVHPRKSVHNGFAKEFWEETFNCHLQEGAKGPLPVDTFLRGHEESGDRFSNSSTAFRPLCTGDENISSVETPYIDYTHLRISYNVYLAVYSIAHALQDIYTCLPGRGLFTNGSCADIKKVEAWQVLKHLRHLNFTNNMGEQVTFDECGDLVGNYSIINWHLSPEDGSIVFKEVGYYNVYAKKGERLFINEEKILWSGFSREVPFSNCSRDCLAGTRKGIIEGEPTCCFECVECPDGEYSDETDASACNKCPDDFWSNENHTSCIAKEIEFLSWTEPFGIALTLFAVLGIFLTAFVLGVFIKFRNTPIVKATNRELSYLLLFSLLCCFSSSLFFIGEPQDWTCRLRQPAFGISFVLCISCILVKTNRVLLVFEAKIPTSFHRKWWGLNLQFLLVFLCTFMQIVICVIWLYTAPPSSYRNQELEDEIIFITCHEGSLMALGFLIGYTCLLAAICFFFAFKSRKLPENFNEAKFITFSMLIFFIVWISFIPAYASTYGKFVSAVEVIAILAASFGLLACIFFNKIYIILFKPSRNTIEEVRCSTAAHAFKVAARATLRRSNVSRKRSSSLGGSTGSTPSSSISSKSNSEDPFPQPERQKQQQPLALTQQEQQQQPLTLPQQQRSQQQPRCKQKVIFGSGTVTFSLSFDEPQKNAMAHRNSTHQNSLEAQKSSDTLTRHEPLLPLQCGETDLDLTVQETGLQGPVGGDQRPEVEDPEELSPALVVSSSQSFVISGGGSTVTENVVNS
As to the kind of experiment: Assay for intracellular free calcium (inhibition of calcium transients stimulated by extracellular calcium). The format is cell-based. To be noted: CCL39 fibroblasts stably transfected with human PCaR; "based on the above described assay". The method, then:
An alternative method to determine antagonism at the PCaR consists in measuring the inhibition of intracellular calcium transients stimulated by extracellular calcium. CCL39 fibroblasts stably transfected with human PCaR are seeded at 40′000 cells/well into 96-well Viewplates and incubated for 24 hours. Medium is then removed and replaced with fresh medium containing 2 μM Fluo-3 AM (Molecular Probes, Leiden, The Netherlands), In routine experiments, cells are incubated at 37° C., 5% CO2 for 1 h. Afterwards, plates are washed twice with mHBS and wells are refilled with 100 μl mHBS containing the test compounds. Incubation is continued at room temperature for 15 minutes. To record changes of intracellular free calcium, plates are transferred to fluorescence-imaging plate reader (Molecular Devices, Sunnyvale, Calif., USA). A baseline consisting in 5 measurements of 0.4 seconds each (laser excitation 488 nm) is recorded. Cells are then stimulated with calcium (2.5 mM final), and fluorescence changes recorded over a period of 3 minutes.

Structures are written as SMILES.

As usually defined, the IC50 is the point on the concentration scale where inhibition reaches its midpoint. For `COCCn1c(-c2ccc(C(C)C)cc2)nc2c(Br)c(Cc3cccnc3SC)cc(OC)c21` [Example 1, 4-Bromo-2-(4-isopropyl-phenyl)-7-methoxy-1-(2-methoxy-ethyl)-5-(2-methylsulfanyl-pyridin-3-ylmethyl)-1H-benzoimidazole], the half-inhibitory concentration (IC50) came to 3.4 nM. The same measure for `COCCn1c(-c2ccc(C(C)C)cc2)nc2c(C(F)(F)F)c(Cc3cccnc3[S+](C)[O-])cc(OC)c21` (stereo not shown) [Example 3, 2-(4-Isopropyl-phenyl)-5-(2-methanesulfinyl-pyridin-3-ylmethyl)-7-methoxy-1-(2-methoxy-ethyl)-4-trifluoromethyl-1H-benzoimidazole]: 2.6 nM; for `COCCn1c(-c2ccc(C(C)C)cc2)nc2c(C(F)(F)F)c(Cc3cccnc3OC(C)C)cc(OC)c21` [Example 8, 5-(2-Isopropoxy-pyridin-3-ylmethyl)-2-(4-Isopropyl-phenyl)-7-methoxy-1-(2-methoxy-ethyl)-4-trifluoromethyl-1H-benzoimidazole]: 3.2 nM; for `C#CCOc1ncccc1Cc1cc(OC)c2c(nc(-c3ccc(C(C)C)cc3)n2CCOC)c1C(F)(F)F` [Example 9, 2-(4-Isopropyl-phenyl)-7-methoxy-1-(2-methoxy-ethyl)-5-(2-prop-2-ynyloxy-pyridin-3-ylmethyl)-4-trifluoromethyl-1H-benzoimidazole]: 1.8 nM.

(Values after patent US20100227889A1, “Benzimidazole Derivatives” (priority 2006, published 2010).)
